Where a name gives a salt, the structure may show the parent alone.
System: IL-2 production
Test: Inhibition of IL-2 production in PHA-activated Jurkat cells (ELISA)
Type: cell-based
Conditions: Homo sapiens, Jurkat, 20 h, PHA 2.5 μg/mL, IL-2 ELISA
Procedure: Jurkat cells were placed in a 96 well plate (0.5 million cells per well in 1% FBS medium) then a test compound of this invention was added at different concentrations. After 10 minutes, the cells were activated with PHA (final concentration 2.5 μg/mL) and incubated for 20 hours at 37° C. under CO2. The final volume was 200 μL. Following incubation, the cells were centrifuged and the supernatants collected and stored at −70° C. prior to assaying for IL-2 production. A commercial ELISA kit (IL-2 Eli-pair, Diaclone Research, Besancon, France) was used to detect production of IL-2, from which dose response curves were obtained. The IC50 value was calculated as the concentration at which 50% of maximum IL-2 production after stimulation was inhibited versus a non-stimulation control.

IC50 [nM]	SMILES
9	Cc1ccc(-c2cnco2)cc1-c1ccc(NC(=O)c2c(F)cccc2F)nc1 [Compound 70, 2,6-difluoro-N-(5-(2-methyl-5-(oxazol-5-yl)phenyl)pyridin-2-yl)benzamide]
7	Cc1nnsc1C(=O)Nc1ccc(-c2cc(-c3ncco3)ccc2Cl)cn1 [Compound 19, 4-Methyl-[1,2,3]thiadiazole-5-carboxylic acid [5-(2-chloro-5-oxazol-2-yl-phenyl)-pyridin-2-yl]-amide]
17	O=C(Nc1ccc(-c2cc(-c3nccs3)ccc2Cl)nc1)c1c(F)cccc1F [Compound 72, N-(6-(2-chloro-5-(thiazol-2-yl)phenyl)pyridin-3-yl)-2,6-difluorobenzamide]
12	Cc1ccc(-c2ncco2)cc1-c1ccc(NC(=O)c2c(F)cccc2F)cn1 [Compound 20, 2,6-Difluoro-N-[6-(2-methyl-5-oxazol-2-yl-phenyl)-pyridin-3-yl]-benzamide hydrochloride]
9	O=C(Nc1ccc(-c2cc(-c3ncco3)ccc2Cl)nc1)c1c(F)cccc1F [Compound 76, N-(6-(2-chloro-5-(oxazol-2-yl)phenyl)pyridin-3-yl)-2,6-difluorobenzamide]
38	Cc1ccc(-c2ccno2)cc1-c1ccc(NC(=O)c2snnc2C)nc1 [Compound 68, N-(5-(5-(isoxazol-5-yl)-2-methylphenyl)pyridin-2-yl)-4-methyl-1,2,3-thiadiazole-5-carboxamide]
16	Cc1cc(NC(=O)c2c(F)cccc2F)ncc1-c1cccc(C(F)(F)F)c1 [Compound 14, 2,6-Difluoro-N-[4-methyl-5-(3-trifluoromethyl-phenyl)-pyridin-2-yl]-benzamide]
2	Cc1nnsc1C(=O)Nc1ccc(-c2cc(-c3nccs3)ccc2Cl)cn1 [Compound 17, 4-Methyl-[1,2,3]thiadiazole-5-carboxylic acid [5-(2-chloro-5-thiazol-2-yl-phenyl)-pyridin-2-yl]-amide]
4	COC(=O)c1ccc(C)c(-c2ccc(NC(=O)c3c(F)cccc3F)nc2)c1 [Compound 7, 3-[6-(2,6-Difluoro-benzoylamino)-pyridin-3-yl]-4-methyl-benzoic acid methyl ester]
180	Cc1ccc(-c2ncco2)cc1-c1ccc(NC(=O)c2ccc(Cl)cc2F)cn1 [Compound 80, 4-chloro-2-fluoro-N-(6-(2-methyl-5-(oxazol-2-yl)phenyl)pyridin-3-yl)benzamide]
73	Cc1ccc(-c2nnco2)cc1-c1ccc(NC(=O)c2c(F)cccc2F)nc1 [Compound 69, 2,6-difluoro-N-(5-(2-methyl-5-(1,3,4-oxadiazol-2-yl)phenyl)pyridin-2-yl)benzamide]
6	COC(=O)c1ccc(Cl)c(-c2ccc(NC(=O)c3c(F)cccc3F)nc2)c1 [Compound 6, 4-Chloro-3-[6-(2,6-difluoro-benzoylamino)-pyridin-3-yl]-benzoic acid methyl ester]
98	Cc1nc(NC(=O)c2c(F)cccc2F)ccc1-c1cccc(C(F)(F)F)c1 [Compound 15, 2,6-Difluoro-N-[6-methyl-5-(3-trifluoromethyl-phenyl)-pyridin-2-yl]-benzamide]
7	COc1ccc(-c2cnco2)cc1-c1ccc(NC(=O)c2snnc2C)nc1 [Compound 67, N-(5-(2-methoxy-5-(oxazol-5-yl)phenyl)pyridin-2-yl)-4-methyl-1,2,3-thiadiazole-5-carboxamide]
98	Cc1ccc(-c2nnco2)cc1-c1ccc(NC(=O)c2c(F)cccc2F)cn1 [Compound 75, 2,6-Difluoro-N-(6-(2-methyl-5-(1,3,4-oxadiazol-2-yl)phenyl)pyridin-3-yl)benzamide]
15	Cc1nnsc1C(=O)Nc1ccc(-c2cc(C(F)(F)F)ccc2Cl)cn1 [Compound 16, 4-Methyl-[1,2,3]thiadiazole-5-carboxylic acid [5-(2-chloro-5-trifluoromethyl-phenyl)-pyridin-2-yl]-amide]
25	Cc1ccc(-c2nccs2)cc1-c1ccc(NC(=O)c2c(F)cccc2F)cn1 [Compound 74, 2,6-Difluoro-N-(6-(2-methyl-5-(thiazol-2-yl)phenyl)pyridin-3-yl)benzamide]
2	O=C(Nc1ccc(-c2cc(-c3nccs3)ccc2Cl)cn1)c1c(F)cccc1F [Compound 10, N-[5-(2-Chloro-5-thiazol-2-yl-phenyl)-pyridin-2-yl]-2,6-difluoro-benzamide]
17	O=C(Nc1ccc(-c2cc(-c3nnco3)ccc2Cl)cn1)c1c(F)cccc1F [Compound 71, N-(5-(2-chloro-5-(1,3,4-oxadiazol-2-yl)phenyl)pyridin-2-yl)-2,6-difluorobenzamide]
10	Cc1ccc(-c2cnco2)cc1-c1ccc(NC(=O)c2c(F)cccc2F)cn1 [Compound 78, 2,6-Difluoro-N-(6-(2-methyl-5-(oxazol-5-yl)phenyl)pyridin-3-yl)benzamide]
3	O=C(Nc1ccc(-c2cc(-c3ncco3)ccc2Cl)cn1)c1c(F)cccc1F [Compound 8, N-[5-(2-Chloro-5-oxazol-2-yl-phenyl)-pyridin-2-yl]-2,6-difluoro-benzamide]
31	Cc1ccc(-c2cnco2)cc1-c1ccc(NC(=O)c2snnc2C)nc1 [Compound 21, 4-methyl-N-(5-(2-methyl-5-(oxazol-5-yl)phenyl)pyridin-2-yl)-1,2,3-thiadiazole-5-carboxamide]
12	Cc1ccc(-c2ncco2)cc1-c1ccc(NC(=O)c2snnc2C)nc1 [Compound 18, 4-Methyl-[1,2,3]thiadiazole-5-carboxylic acid [5-(2-methyl-5-oxazol-2-yl-phenyl)-pyridin-2-yl]-amide]

Same assay, conditions: PHA 2.5 μg/mL, 20 hours, IL-2 ELISA

IC50 [nM]	SMILES
11	O=C(Nc1ccc(-c2cc(-c3ncco3)ccc2Cl)nc1)c1c(F)cccc1F [Compound 77, N-(6-(2-chloro-5-(oxazol-2-yl)phenyl)pyridin-3-yl)-2,6-difluorobenzamide hydrochloric acid salt]
14	Cc1ccc(-c2ncco2)cc1-c1ccc(NC(=O)c2c(F)cccc2F)cn1 [Compound 13, 2,6-Difluoro-N-[6-(2-methyl-5-oxazol-2-yl-phenyl)-pyridin-3-yl]-benzamide]
